Test results: the supplement of paper PMC10307832

Assays:
Test in all cases: relative viability (nuclei count vs DMSO), 5 days (fraction); higher = more cells survive
[1] = compound: NC(=O)[C@@H](CCC(F)(F)F)N(Cc1ccc(-c2ncon2)cc1F)S(=O)(=O)c1ccc(Cl)cc1 [Avagacestat] + Cc1nc(NC(=O)N2CCC[C@H]2C(N)=O)sc1-c1ccnc(C(C)(C)C(F)(F)F)c1 [Alpelisib] (partner 2 µM)
Outline: (§1)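 Cells from lung cancer lines were seeded into 1536-well plates and, one day later, dosed by pin tool. Treatments were either a single drug or a fixed dose of an anchor drug with five library-drug doses (not always all listed) in √10 steps. After 5 days, nuclei were stained in a one-step fixation (final 0.05% Triton X-100, 1% formaldehyde, 1 ug/ml Hoechst) and counted on 4× images, and relative viability is the treated-to-vehicle nuclei ratio, as the median of duplicate plates.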

[2] = compound: NC(=O)[C@@H](CCC(F)(F)F)N(Cc1ccc(-c2ncon2)cc1F)S(=O)(=O)c1ccc(Cl)cc1 [Avagacestat] + CC(=O)c1c(C)c2cnc(Nc3ccc(N4CCNCC4)cn3)nc2n(C2CCCC2)c1=O [Palbociclib] (partner 0.5 µM)
Outline: as §1

[3] = compound: NC(=O)[C@@H](CCC(F)(F)F)N(Cc1ccc(-c2ncon2)cc1F)S(=O)(=O)c1ccc(Cl)cc1 [Avagacestat] + O=C(c1cc(Cc2n[nH]c(=O)c3ccccc23)ccc1F)N1CCN(C(=O)C2CC2)CC1 [Olaparib] (partner 8 µM)
Outline: as §1

[4] = compound: NC(=O)[C@@H](CCC(F)(F)F)N(Cc1ccc(-c2ncon2)cc1F)S(=O)(=O)c1ccc(Cl)cc1 [Avagacestat] + Nc1nc2[nH]cc(CCc3ccc(C(=O)N[C@@H](CCC(=O)O)C(=O)O)cc3)c2c(=O)[nH]1 [Pemetrexed] (partner 0.2 µM)
Outline: as §1

Cell Line: NCI-H2170
- relative viability ([1]; first compound 0.08 µM): 1.02
- relative viability ([1]; first compound 0.253 µM): 0.843
- relative viability ([1]; first compound 0.8 µM): 0.883
- relative viability ([1]; first compound 2.53 µM): 0.751
- relative viability ([1]; first compound 8 µM): 0.721
- relative viability ([2]; first compound 0.08 µM): 0.421
- relative viability ([2]; first compound 0.253 µM): 0.469
- relative viability ([2]; first compound 0.8 µM): 0.419
- relative viability ([2]; first compound 2.53 µM): 0.404
- relative viability ([2]; first compound 8 µM): 0.433
- relative viability ([3]; first compound 0.08 µM): 0.78
- relative viability ([3]; first compound 0.253 µM): 0.722
- relative viability ([3]; first compound 0.8 µM): 0.612
- relative viability ([3]; first compound 2.53 µM): 0.64
- relative viability ([3]; first compound 8 µM): 0.582
- relative viability ([4]; first compound 0.08 µM): 0.258
- relative viability ([4]; first compound 0.253 µM): 0.268
- relative viability ([4]; first compound 0.8 µM): 0.23
- relative viability ([4]; first compound 2.53 µM): 0.274
- relative viability ([4]; first compound 8 µM): 0.261

Cell Line: NCI-H2228
- relative viability ([1]; first compound 0.08 µM): 0.842
- relative viability ([1]; first compound 0.253 µM): 0.619
- relative viability ([1]; first compound 0.8 µM): 0.773
- relative viability ([1]; first compound 2.53 µM): 0.567
- relative viability ([1]; first compound 8 µM): 0.698
- relative viability ([2]; first compound 0.08 µM): 0.783
- relative viability ([2]; first compound 0.253 µM): 0.819
- relative viability ([2]; first compound 0.8 µM): 0.947
- relative viability ([2]; first compound 2.53 µM): 0.911
- relative viability ([2]; first compound 8 µM): 0.595
- relative viability ([3]; first compound 0.08 µM): 0.642
- relative viability ([3]; first compound 0.253 µM): 0.862
- relative viability ([3]; first compound 0.8 µM): 0.8
- relative viability ([3]; first compound 2.53 µM): 0.658
- relative viability ([3]; first compound 8 µM): 0.59
- relative viability ([4]; first compound 0.08 µM): 0.364
- relative viability ([4]; first compound 0.253 µM): 0.35
- relative viability ([4]; first compound 0.8 µM): 0.346
- relative viability ([4]; first compound 2.53 µM): 0.301
- relative viability ([4]; first compound 8 µM): 0.302

Cell Line: NCI-H2347
- relative viability ([1]; first compound 0.08 µM): 1.15
- relative viability ([1]; first compound 0.253 µM): 1.08
- relative viability ([1]; first compound 0.8 µM): 1.12
- relative viability ([1]; first compound 2.53 µM): 0.957
- relative viability ([1]; first compound 8 µM): 1.02
- relative viability ([2]; first compound 0.08 µM): 0.398
- relative viability ([2]; first compound 0.253 µM): 0.481
- relative viability ([2]; first compound 0.8 µM): 0.409
- relative viability ([2]; first compound 2.53 µM): 0.445
- relative viability ([2]; first compound 8 µM): 0.462
- relative viability ([3]; first compound 0.08 µM): 0.611
- relative viability ([3]; first compound 0.253 µM): 0.589
- relative viability ([3]; first compound 0.8 µM): 0.601
- relative viability ([3]; first compound 2.53 µM): 0.548
- relative viability ([3]; first compound 8 µM): 0.554
- relative viability ([4]; first compound 0.08 µM): 0.426
- relative viability ([4]; first compound 0.253 µM): 0.454
- relative viability ([4]; first compound 0.8 µM): 0.447
- relative viability ([4]; first compound 2.53 µM): 0.465
- relative viability ([4]; first compound 8 µM): 0.406

Cell Line: NCI-H2405
- relative viability ([1]; first compound 0.08 µM): 0.717
- relative viability ([1]; first compound 0.253 µM): 0.742
- relative viability ([1]; first compound 0.8 µM): 0.735
- relative viability ([1]; first compound 2.53 µM): 0.583
- relative viability ([1]; first compound 8 µM): 0.625
- relative viability ([2]; first compound 0.08 µM): 0.512
- relative viability ([2]; first compound 0.253 µM): 0.532
- relative viability ([2]; first compound 0.8 µM): 0.478
- relative viability ([2]; first compound 2.53 µM): 0.448
- relative viability ([2]; first compound 8 µM): 0.489
- relative viability ([3]; first compound 0.08 µM): 0.976
- relative viability ([3]; first compound 0.253 µM): 0.911
- relative viability ([3]; first compound 0.8 µM): 0.978
- relative viability ([3]; first compound 2.53 µM): 0.778
- relative viability ([3]; first compound 8 µM): 0.826
- relative viability ([4]; first compound 0.08 µM): 1.15
- relative viability ([4]; first compound 0.253 µM): 1.17
- relative viability ([4]; first compound 0.8 µM): 1.12
- relative viability ([4]; first compound 2.53 µM): 1.01
- relative viability ([4]; first compound 8 µM): 1.03
